The subject of one series is non-Hodgkin lymphoma. As to the kind of experiment: Patient case: malignant lymphoma, chemotherapy and intravenous target therapy. The class given is in vivo, human. Conditions: one patient, DDP, Vp-16 and IF0 given together. The procedure:
From November of 2002 to August of 2003, the radiotherapy at both axillary regions was administered with DT49Gy, the radiotherapy at both neck regions were administered with DT45Gy. […] The hydrops was drawn off by puncture from the right thoracic cavity, cytology reported: a large amount of lymphocytes and mesothelial cells. The patient was admitted to the hospital for further treatment.
The B ultrasonotrophy on Feb.
After the intravenous target therapy of Bruceantin, Tetrandrine, thalicarpine, maytansine seperately as target agents in combination with anti-cancer drugs by stannous chloride affection for a conjugate as complex for six courses (all kinds of anti-cancer drugs), the effect was obvious.
From Feb. 27, 2006 to Mar. 24, 2006, the intravenous target chemotherapy of Bruceantin and Tetrandrine separately as target agents in combination with anti-cancer drugs by stannous chloride effective for conjugate as complex was administered for a period of four week. On Mar.
The intravenous target chemotherapy of Bruceantin as targeting compound in combination with anti-cancer drugs by stannous chloride function for conjugate as complex was continued for several courses. The CT re-examination in Shandong Medical Imaging Research Institute on Jul.
During the hospitalization, the patient was administered Bruceantin as targeting compound, in combination with the medicaments of 16 times (Arsenic trioxide 5 mg) and 6 times (Ara-C 50 mg), 12 times (cyclophosphamide 0.1), 2 times and VP 16) 50 mg.

The subject of series [1] is CD4 and CD8. As to the kind of experiment: Immunological pathological analysis of removed osteosarcoma tumor (CD4, CD8). Type of series: in vivo. Conditions: C57 mice, after three weeks iv treatment. The procedure: Osteosarcoma cell line growth in the culture for days to reach 10×10^3, then it is implanted into right arm of mice C57, wait about one week, tumor grow to 1 cm size. We prepared that Methylene Diphosphonate (MDP) 100 mg, Ara-C 50 mg and hapten DNP 0.5 mg were added into the stannous chloride 0.05 mg solution for mixture, incubate 5 minutes and produced a conjugated as complex. For treatment group: iv injection of this conjugated solution in 0.2 ml, two time/week for three weeks, for control group: iv injection of only 0.2 ml Ara-C, two time/week for three weeks. […] Surgical removed tumor for immunological pathological analysis, CD4 and CD8 show positive for MDP-Ara-C-DNP conjugated therapy group, control group show negative of CD4 and CD8.

The subject of series [2] is D4 and CD8 antibodies activity. As to the kind of experiment: CytoxiLux analysis (flow cytometry, FIGS. 1A-B). Type of series: cell-based. Conditions: lymphoma C57 mice. The procedure: FIGS. 1A-B show flow cytometry results for CD4 and CD8 immunostaining cells
(§1) Lymphoma cells line growth in the culture for days to reach about 10×10^3, then it is implanted into the right arm of mice C57, about one week, tumor grow to 1 cm size. We prepared that Bruceantin […], Adymicine 10 mg and hapten DNP 0.5 mg were added into the stannous chloride 0.05 mg solution for mixture incubate 5 minutes and produced a conjugated as complex. For treatment group: iv injection of this conjugated solution in 0.2 ml, two-time/week fro three weeks, for control group: iv injection of only 0.2 ml Ara-C, two-time/week for three weeks.
In general terms: Flow cytometry measures light scatter and fluorescence of single cells or particles in a stream.

In series [3] the test system is CD4 and CD8. As to the kind of experiment: Immunological pathological analysis of removed lymphoma tumor (CD4, CD8). Type of series: in vivo. The note with it: C57 mice, after three weeks iv treatment. The method, then: as §1
Series [4] has as its system gastric antrum cancer, intrahepatic lump. Conditions: human, in vivo, iv.
Description: The lateral lump by the lesser curvature of gastric antrum was administered a intratumoral chemotherapy for 3 times/week for three weeks, the lump at the head of pancreas region was administered intratumoral chemotherapy for 2 times/week fro two weeks, abdominal cavity was perfused for 6 times, in which 5-Fu+DDP 20 mg+IL-2 10^6 u were administered for 2 times, Bruceantin plus Adriamycin were perfused to abdominal cavity for 4 times in three weeks.
The intrahepatic lump was administered intratumoral chemotherapy for once. […] ETIFENIN (EHIDA) as target agent in combination with anticancer drugs plus stannous chloride were mixed for a conjugate as a complex, then it was administered intravenous for target therapy and repeated same therapy for 6 times (the formulated medicament mainly comprises: DDP 20 mg for 2 times, 5-Fu 0.5 for 2 times, Ara-C 25 mg for 2 times).

As to `COc1cc([C@@H]2c3cc4c(cc3[C@@H](O[C@@H]3O[C@@H]5CO[C@@H](C)O[C@H]5[C@H](O)[C@H]3O)[C@H]3COC(=O)[C@H]23)OCO4)cc(OC)c1O` [Vp-16], the “bone marrow inhibition after chemotherapy” value (“bone marrow inhibition” for short) in the series with non-Hodgkin lymphoma is recorded as “inhibited to the III degree”.

For `N.N.[Cl][Pt][Cl]` [DDP, Cisplatin], the “bone marrow inhibition” value with non-Hodgkin lymphoma was “inhibited to the III degree”.

On to `O=P1(NCCCl)OCCCN1CCCl` (stereo not shown) [IF0], for which the “bone marrow inhibition” value with non-Hodgkin lymphoma is “inhibited to the III degree”.

On to `Nc1ccn([C@@H]2O[C@H](CO)[C@@H](O)[C@@H]2O)c(=O)n1` [Ara-C, Cytidine Arabinosyladenine], for which the “CD4 and CD8 in removed tumor” value in the series with CD4 and CD8 [1] is “negative”; with CD4 and CD8 [3], “negative”. Moreover, the “index of D4 and CD8 antibodies activity” value in series [2] stood at 28%.

As to “ETIFENIN (EHIDA) as target agent in combination with anticancer drugs”, the symptoms after treatment result in series [4] is “abdominal pain, abdominal distention, decreased appetite, accompanied by night sweating and debilitation”.

Values taken from US9000036B2, “Compositions and methods for targeting of treating neoplasms” (priority 2006, dated 2015).
